{"source": "patent US11337950B2", "about": "“Biologically active cannabidiol analogs” (University of Mississippi, priority 2016, dated 2022)", "key": {"[1]": {"assay_type": "physicochemical", "conditions": "for Concentration of CBD-Mono-Val-Mono-HS: 37° C.", "procedure": "The stability CBD and CBD analogs (CBD-Mono-VHS and CBD-Di-VHS) was evaluated under acidic and alkaline conditions to simulate exposure to gastric and intestinal fluids. The procedure is outlined as follows: • 1. Stock solution of 5 mg/mL CBD, CBD-Mono-Val-Mono HS, CBD-Di-Val-Di HS was prepared. • 2. Simulated Gastric Fluid (pH 1.2)+1% (SDS) was prepared and kept in 37° C. water bath. • 3. Physiological buffer (pH 7.4)+1% SDS was prepared and kept in 37° C. water bath. • 4. 100 μL of CBD, CBD-Mono-Val-Mono HS or CBD-Di-Val-Di-HS stock in acetonitrile (equivalent to 500 μg) was spiked into separate vials containing 5 ml of either pH 1.2 and 7.4. • 5. At each time point, 100 μL of the solution was withdrawn. • 6. 900 μL acetonitrile was added to each sample. • 7. All samples centrifuged at 4° C. and 13,000 rpm. • 8. 100 μL of the supernatant was withdrawn; to this 100 μL of supernatant, 900 μL of acetonitrile was added and placed in LC vials for analysis. Tables 9, 10 and 11, and FIGS. 7a, 7b, 18, and 19 show the results."}, "[2]": {"test": "Oral bioavailability of CBD-Mono-VHS in sesame seed oil (Example 18)", "assay_type": "in vivo", "conditions": "rats; for Plasma Concentration of CBD-Mono-VHS, Average / Plasma Concentration of CBD-Mono-VHS: oral 4 mg/animal in sesame seed oil; for Plasma Concentration of CBD-Mono-VHS: individual animals", "procedure": "CBD-Mono-VHS was formulated in a sesame seed oil (Welch, Holme and Clark Co. lot #39375) formulation composed of 40 mg/mL solution of the drug substance/mi. Animals (cannulated rats, n=4) were dosed 100 μl of the oil solution by oral gavage. Blood samples were collected at 0, 0.25, 0.5, 1, 2, 4, 6, 8, and 24 hr. after dosing. The blood samples were centrifuged and the plasma was analyzed for CBD-Mono-VHS. Table 7 and FIG. 5 show the results, with very high blood levels which remain significant (>10 ng/mL) at 24 hr. after dosing."}, "[3]": {"test": "Bioavailability of CBD-Mono-VHS from a hydrophilic suppository, PEG 1000 (Example 17)", "assay_type": "in vivo", "parameters": "unit not given here", "conditions": "rats, rectal 7.5 mg, Hydrophilic (PEG 1000) Suppository; for Plasma Concentration of CBD-Mono-VHS: individual animals", "procedure": "CBD-Mono-Val-Mono-HS was formulated in PEG 1000 suppository base (a hydrophilic suppository base) at 75 mg/mL of melted base. The study was carried out in a cannulated rat model. Three animals were administered 100 μl. each of the semisolid formulation for a rectal dose of 7.5 mg CBD-Mono-VHS. […] The blood was centrifuged and the plasma was used for LC-MS/MS analysis."}, "[4]": {"test": "Organ distribution of CBD-Mono-VHS after oral administration (Example 19)", "assay_type": "in vivo, rats", "conditions": "rat, oral 4 mg/animal", "procedure": "To determine whether CBD-Mono-VHS reaches the organs and especially the brain, two cannulated rats were administered same dose as those in Example 18. One rat was sacrificed at 2 hr. after dosing and the other at 4 hr. after dosing and the organs were harvested (brain, liver, and spleen) as well as blood for analysis."}}, "note": "Several values for one entry are separate records, joined by “and”; a condition that tells them apart may be missing. Identical values can stand only once. Like-named read-outs stand apart in the source and are kept apart here.", "data": [{"compound": "C=C(C)C1CCC(C)=CC1c1c(O)cc(CCCCC)cc1OC(=O)[C@@H](NC(=O)CCC(=O)O)C(C)C", "note": "(some centres unmarked) [CBD-Mono-VHS, CBD-Mono-Valinate-Mono-Hemisuccinate]", "values": [{"measurement": "Concentration of CBD-Mono-Val-Mono-HS", "setting": "[1]; Acid (pH 1.2), Time Point 0", "result": 941, "unit": "ng/mL"}, {"measurement": "Concentration of CBD-Mono-Val-Mono-HS", "setting": "[1]; Acid (pH 1.2), Time Point 15", "result": 1380, "unit": "ng/mL"}, {"measurement": "Concentration of CBD-Mono-Val-Mono-HS", "setting": "[1]; Acid (pH 1.2), Time Point 30", "result": 1472, "unit": "ng/mL"}, {"measurement": "Concentration of CBD-Mono-Val-Mono-HS", "setting": "[1]; Acid (pH 1.2), Time Point 60", "result": 1579, "unit": "ng/mL"}, {"measurement": "Concentration of CBD-Mono-Val-Mono-HS", "setting": "[1]; Acid (pH 1.2), Time Point 90", "result": 1478, "unit": "ng/mL"}, {"measurement": "Concentration of CBD-Mono-Val-Mono-HS", "setting": "[1]; Acid (pH 1.2), Time Point 120", "result": 1519, "unit": "ng/mL"}, {"measurement": "Concentration of CBD-Mono-Val-Mono-HS", "setting": "[1]; Base (pH 7.4), Time Point 0", "result": 886, "unit": "ng/mL"}, {"measurement": "Concentration of CBD-Mono-Val-Mono-HS", "setting": "[1]; Base (pH 7.4), Time Point 15", "result": 1439, "unit": "ng/mL"}, {"measurement": "Concentration of CBD-Mono-Val-Mono-HS", "setting": "[1]; Base (pH 7.4), Time Point 30", "result": 1197, "unit": "ng/mL"}, {"measurement": "Concentration of CBD-Mono-Val-Mono-HS", "setting": "[1]; Base (pH 7.4), Time Point 60", "result": 1791, "unit": "ng/mL"}, {"measurement": "Concentration of CBD-Mono-Val-Mono-HS", "setting": "[1]; Base (pH 7.4), Time Point 90", "result": 1615, "unit": "ng/mL"}, {"measurement": "Concentration of CBD-Mono-Val-Mono-HS", "setting": "[1]; Base (pH 7.4), Time Point 120", "result": 1731, "unit": "ng/mL"}, {"measurement": "Stability under acidic (gastric juice) conditions, in words", "setting": "[1]; pH 1.2, 37° C.", "result": "stable"}, {"measurement": "Stability under physiologic / intestinal juice conditions, in words", "setting": "[1]; pH 7.4, 37° C.", "result": "stable"}, {"measurement": "Plasma Concentration of CBD-Mono-VHS, Average", "setting": "[2]; 0 hr", "result": 0.0, "unit": "ng/mL"}, {"measurement": "Plasma Concentration of CBD-Mono-VHS", "setting": "[2]; 0 hr", "result": 0.0, "unit": "ng/mL"}, {"measurement": "Plasma Concentration of CBD-Mono-VHS, Average", "setting": "[2]; 0.25 hr", "result": 1029.0, "unit": "ng/mL"}, {"measurement": "Plasma Concentration of CBD-Mono-VHS", "setting": "[2]; 0.25 hr", "result": "1255.5 ng/mL and 1512.3 ng/mL and 370.2 ng/mL and 978.0 ng/mL"}, {"measurement": "Plasma Concentration of CBD-Mono-VHS, Average", "setting": "[2]; 0.5 hr", "result": 1626.3, "unit": "ng/mL"}, {"measurement": "Plasma Concentration of CBD-Mono-VHS", "setting": "[2]; 0.5 hr", "result": "1174.8 ng/mL and 2655.0 ng/mL and 1437.1 ng/mL and 1238.2 ng/mL"}, {"measurement": "Plasma Concentration of CBD-Mono-VHS, Average", "setting": "[2]; 1 hr", "result": 2127.5, "unit": "ng/mL"}, {"measurement": "Plasma Concentration of CBD-Mono-VHS", "setting": "[2]; 1 hr", "result": "1400.6 ng/mL and 3120.9 ng/mL and 2496.6 ng/mL and 1492.0 ng/mL"}, {"measurement": "Plasma Concentration of CBD-Mono-VHS, Average", "setting": "[2]; 2 hr", "result": 593.5, "unit": "ng/mL"}, {"measurement": "Plasma Concentration of CBD-Mono-VHS", "setting": "[2]; 2 hr", "result": "392.2 ng/mL and 1317.3 ng/mL and 399.5 ng/mL and 264.8 ng/mL"}, {"measurement": "Plasma Concentration of CBD-Mono-VHS, Average", "setting": "[2]; 4 hr", "result": 234.8, "unit": "ng/mL"}, {"measurement": "Plasma Concentration of CBD-Mono-VHS", "setting": "[2]; 4 hr", "result": "115.1 ng/mL and 423.3 ng/mL and 116.1 ng/mL and 284.8 ng/mL"}, {"measurement": "Plasma Concentration of CBD-Mono-VHS, Average", "setting": "[2]; 6 hr", "result": 212.0, "unit": "ng/mL"}, {"measurement": "Plasma Concentration of CBD-Mono-VHS", "setting": "[2]; 6 hr", "result": "71.4 ng/mL and 181.0 ng/mL and 397.8 ng/mL and 197.8 ng/mL"}, {"measurement": "Plasma Concentration of CBD-Mono-VHS, Average", "setting": "[2]; 8 hr", "result": 152.2, "unit": "ng/mL"}, {"measurement": "Plasma Concentration of CBD-Mono-VHS", "setting": "[2]; 8 hr", "result": "44.6 ng/mL and 89.8 ng/mL and 210.0 ng/mL and 264.4 ng/mL"}, {"measurement": "Plasma Concentration of CBD-Mono-VHS, Average", "setting": "[2]; 24 hr", "result": 27.2, "unit": "ng/mL"}, {"measurement": "Plasma Concentration of CBD-Mono-VHS", "setting": "[2]; 24 hr", "result": "6.5 ng/mL and 37.8 ng/mL and 47.1 ng/mL and 17.5 ng/mL"}, {"measurement": "blood levels which remain significant at 24 hr. after dosing", "setting": "[2]; oral 4 mg/animal, 24 hr", "result": "> 10", "unit": "ng/mL"}, {"measurement": "Plasma Concentration of CBD-Mono-VHS, Average", "setting": "[3]; 0 hr", "result": 0.0}, {"measurement": "Plasma Concentration of CBD-Mono-VHS", "setting": "[3]; 0 hr", "result": 0.0}, {"measurement": "Plasma Concentration of CBD-Mono-VHS, Average", "setting": "[3]; 0.25 hr", "result": 13.2}, {"measurement": "Plasma Concentration of CBD-Mono-VHS", "setting": "[3]; 0.25 hr", "result": "14.7 and 10.1 and 14.8"}, {"measurement": "Plasma Concentration of CBD-Mono-VHS, Average", "setting": "[3]; 0.5 hr", "result": 38.5}, {"measurement": "Plasma Concentration of CBD-Mono-VHS", "setting": "[3]; 0.5 hr", "result": "44.2 and 38.4 and 32.9"}, {"measurement": "Plasma Concentration of CBD-Mono-VHS, Average", "setting": "[3]; 1 hr", "result": 89.4}, {"measurement": "Plasma Concentration of CBD-Mono-VHS", "setting": "[3]; 1 hr", "result": "106.0 and 54.3 and 108.0"}, {"measurement": "Plasma Concentration of CBD-Mono-VHS, Average", "setting": "[3]; 2 hr", "result": 114.7}, {"measurement": "Plasma Concentration of CBD-Mono-VHS", "setting": "[3]; 2 hr", "result": "108.0 and 123.0 and 113.0"}, {"measurement": "Plasma Concentration of CBD-Mono-VHS, Average", "setting": "[3]; 4 hr", "result": 57.2}, {"measurement": "Plasma Concentration of CBD-Mono-VHS", "setting": "[3]; 4 hr", "result": "57.5 and 60.5 and 53.5"}, {"measurement": "Plasma Concentration of CBD-Mono-VHS, Average", "setting": "[3]; 6 hr", "result": 28.7}, {"measurement": "Plasma Concentration of CBD-Mono-VHS", "setting": "[3]; 6 hr", "result": "18.6 and 37.4 and 30.1"}, {"measurement": "Plasma Concentration of CBD-Mono-VHS, Average", "setting": "[3]; 8 hr", "result": 24.0}, {"measurement": "Plasma Concentration of CBD-Mono-VHS", "setting": "[3]; 8 hr", "result": "44.8 and 21.6 and 27.3"}, {"measurement": "Plasma Concentration of CBD-Mono-VHS, Average", "setting": "[3]; 24 hr", "result": 0.9}, {"measurement": "Plasma Concentration of CBD-Mono-VHS", "setting": "[3]; 24 hr", "result": "0.0 and 2.5 and 2.6"}, {"measurement": "Organ level of CBD-Mono-VHS, BRAIN", "setting": "[4]; 2 HR", "result": 556, "unit": "ng/organ"}, {"measurement": "Organ level of CBD-Mono-VHS, LIVER", "setting": "[4]; 2 HR", "result": 66484, "unit": "ng/organ"}, {"measurement": "Organ level of CBD-Mono-VHS, SPLEEN", "setting": "[4]; 2 HR", "result": 1438, "unit": "ng/organ"}, {"measurement": "Plasma level of CBD-Mono-VHS", "setting": "[4]; 2 HR", "result": 285, "unit": "ng/mL"}, {"measurement": "Organ level of CBD-Mono-VHS, BRAIN", "setting": "[4]; 4 HR", "result": 205, "unit": "ng/organ"}, {"measurement": "Organ level of CBD-Mono-VHS, LIVER", "setting": "[4]; 4 HR", "result": 8301, "unit": "ng/organ"}, {"measurement": "Organ level of CBD-Mono-VHS, SPLEEN", "setting": "[4]; 4 HR", "result": 392, "unit": "ng/organ"}, {"measurement": "Plasma level of CBD-Mono-VHS", "setting": "[4]; 4 HR", "result": 53, "unit": "ng/mL"}]}]}
